Structures can show the parent of a compound that is named as a salt. Each block holds one compound with its values, some of them ahead of it.
How the values were obtained:
[1] = tested on: reserpine hypothermia; assay: Prevention of Reserpine Hypothermia; assay type: in vivo, mice (Carworth Europe male); conditions: for Reserpine Prevention Δ^6: 6 hours; for Reserpine Prevention Δ^24: 24 hours; for effects on the Reserpine Prevention tests: comparison of the two isomers; for Δ^6 / Δ^24: mice, oral; for Δ^6: cumulative temperature difference from controls at 6 hours; for Δ^24: cumulative temperature difference from controls at 24 hours
Protocol: The method of Spencer [Antidepressant Drugs, 194 (1967) ] was used. Groups of ten mice are given oral doses of test compound 24 18 and 2 hours before an intravenous injection of reserpine base (Serpasil). Oral temperatures of the mice are taken immediately before administration of reserpine and then 2 4 6 and 24 hours afterwards.
Mean temperatures of groups given test compounds are compared with reserpinised controls using a Students t test. Compounds causing a significant difference at the level P < 0.001 are considered active. In order to quantify anti-reserpine activity cumulative temperature differences from controls at 6 hours and 24 hours (Δ^6 and Δ^24 ) are calculated.
(§1) Carworth Europe male mice are used for all experiments apart from that using the cat nictitating membrane and test compounds are administered orally as solutions in distilled water. Compounds for intravenous administration are dissolved in 0.9% saline apart from Reserpine which is dissolved in dilute acetic acid buffered to pH5. Unless otherwise stated, the dosing interval is one hour.
(§2) The Reserpine Prevention, Reserpine Reversal and Noradrenaline Uptake Inhibition tests were carried out as described in the previous Example. The Mydriasis tests was also as described in the previous Example but using 20 mg/kg doses of each compound after which a curve was plotted of percentage increase in pupil diameter vertus time and the percentage increase was integrated with respect to time for 0-120 minutes after dosing and the result expressed as a percentage.

[2] = tested on: reserpine hypothermia; assay: Reversal of Reserpine Hypothermia; assay type: in vivo, mice (Carworth Europe male); conditions: for Reserpine Reversal Δ^6 / Δ^6: 6 hours; for Reserpine Reversal Δ^24 / Δ^24: 24 hours; for Δ^6 / Δ^24: mice, subcutaneous
Protocol: Seventeen hours later the oral temperatures of the mice are taken and various doses of test compound or vehicle given subcutaneously. Temperatures are taken 1, 2, 4 6 and 24 hours later and the results are analysed as in Test 1 (The subcutaneous route is used for convenience as the very depressed reserpinised mice cannot be reliably dosed orally).
as §1, §2

[3] = tested on: Noradrenaline uptake; assay: Inhibition of Noradrenaline Uptake in vitro (brain synaptosomes); assay type: biochemical, male Wistar rats; conditions: for Inhibition of Noradrenaline Uptake In Vitro %: 10^-6 molar (Pharmacology 2)
Protocol: (§3) Synaptosomes are isolated from the brains of male Wistar rats (150-170g.) and monamine uptake determined by the method of Snyder and Coyle (1968) [Synder S. H. and Coyle J. T. J. Pharmac. exp. Ther. 165 (1968) 78-86]. Uptake was determined over a ten minute period instead of the normal five minutes.
as §2

[4] = tested on: pupil diameter (mydriasis); assay: Mydriasis integral 0-120 minutes; assay type: in vivo, mice; conditions: for Mydriasis Integral Percent 120 Mins.: mice, 20 mg/kg, 0-120 minutes
Protocol: Groups of five mice are pre-selected for uniformity of pupil diameter using a binocular microscope with a calibrated eye-piece. Pupil sizes are measured at various intervals after an intraperitoneal injection of test compound and at the peak time a curve plotted of percentage increase in pupil diameter versus log dose. From this the dose causing a 200% increase in pupil size (this lies on the linear part of the curve) is found
as §1, §2

[5] = tested on: pupil diameter (mydriasis, anticholinergic side effect); assay: Mydriatic Response in Mice (dose causing 200% increase in pupil size); assay type: in vivo
Protocol: Groups of five mice are pre-selected for uniformity of pupil diameter using a binocular microscope with a calibrated eye-piece. Pupil sizes are measured at various intervals after an intraperitoneal injection of test compound and at the peak time a curve plotted of percentage increase in pupil diameter versus log dose. […] Carworth Europe male mice are used for all experiments apart from that using the cat nictitating membrane and test compounds are administered orally as solutions in distilled water. […] Unless otherwise stated, the dosing interval is one hour.

[6] = molecular target: T1, Guinea Pig Ileum (Cavia porcellus); assay: pA2 Determination on Guinea Pig Ileum (antagonism to Acetylcholine); conditions: in vitro, read-out: pA2 on Iillium (converted)
T1 construct: from tissue; host or cells: guinea pig ileum
Text: It is thus a means of expressing anticholinergic activity which is independent of the dose of Acetylcholine and the piece of tissue used. The method used is similar to that of Schild, [Brit. J. Pharmacol. 14 (1959) 48] the tissue being bathed in Tyrode solution and a dose response curved for Acetylcholine being obtained.

[7] = tested on: 5-Hydroxytryptamine uptake; assay: Inhibition of 5-Hydroxytryptamine Uptake in vitro (brain synaptosomes); assay type: biochemical, male Wistar rats
Protocol: as §3

[8] = Pharmacology 2, dose 10 (unit not given)
[9] = Pharmacology 2, dose 20 (unit not given)
[10] = Pharmacology 2, dose 40 (unit not given)
[11] = mice, intraperitoneal, at peak time

T1 sequence (H0W1Z3 1-590): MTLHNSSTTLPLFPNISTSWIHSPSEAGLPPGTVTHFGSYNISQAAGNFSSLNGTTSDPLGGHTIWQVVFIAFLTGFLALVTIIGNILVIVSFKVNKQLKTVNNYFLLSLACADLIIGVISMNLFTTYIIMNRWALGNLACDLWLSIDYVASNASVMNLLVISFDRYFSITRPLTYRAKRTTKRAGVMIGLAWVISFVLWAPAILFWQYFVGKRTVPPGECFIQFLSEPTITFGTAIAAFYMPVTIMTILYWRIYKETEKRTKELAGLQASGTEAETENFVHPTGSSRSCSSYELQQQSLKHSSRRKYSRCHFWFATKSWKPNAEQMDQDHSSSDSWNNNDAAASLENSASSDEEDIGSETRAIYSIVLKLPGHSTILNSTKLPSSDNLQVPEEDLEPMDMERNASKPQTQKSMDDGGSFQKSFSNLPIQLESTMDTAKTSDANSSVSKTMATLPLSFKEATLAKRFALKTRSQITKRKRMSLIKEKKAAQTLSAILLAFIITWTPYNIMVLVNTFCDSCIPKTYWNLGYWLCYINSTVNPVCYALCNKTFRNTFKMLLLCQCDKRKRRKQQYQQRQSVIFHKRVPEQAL

SMILES: CN(C)CC(O)C(c1ccccc1)c1ccccc1 (racemic) [Compound A, (±) -3-Dimethylamino-1,1-diphenylpropan-2-ol]
Reserpine Prevention Δ^6 [1, 8]: 12 °C
Reserpine Prevention Δ^24 [1, 8]: 16 °C
Reserpine Prevention Δ^6 [1, 9]: 15 °C
Reserpine Prevention Δ^24 [1, 9]: 19 °C
Reserpine Prevention Δ^6 [1, 10]: 15 °C
Reserpine Prevention Δ^24 [1, 10]: 22 °C
Reserpine Reversal Δ^6 [2, 8]: 16 °C
Reserpine Reversal Δ^24 [2, 8]: 20 °C
Reserpine Reversal Δ^6 [2, 9]: 14 °C
Reserpine Reversal Δ^24 [2, 9]: 17 °C
Reserpine Reversal Δ^6 [2, 10]: 15 °C
Reserpine Reversal Δ^24 [2, 10]: 20 °C
Inhibition of Noradrenaline Uptake In Vitro % [3]: 63%
Mydriasis Integral Percent 120 Mins. [4]: 7400%

SMILES: CN(C)CC(O)C(c1ccccc1)c1ccccc1 (racemic) [Compound B, (+)-3-Dimethylamino-1,1-diphenyl-propan-2-ol]
Reserpine Prevention Δ^6 [1, 8]: 12 °C
Reserpine Prevention Δ^24 [1, 8]: 15 °C
Reserpine Prevention Δ^6 [1, 9]: 16 °C
Reserpine Prevention Δ^24 [1, 9]: 23 °C
Reserpine Prevention Δ^6 [1, 10]: 16 °C
Reserpine Prevention Δ^24 [1, 10]: 25 °C
effects on the Reserpine Prevention tests [1]: roughly equal effects
Reserpine Reversal Δ^6 [2, 8]: 16 °C
Reserpine Reversal Δ^24 [2, 8]: 27 °C
Reserpine Reversal Δ^6 [2, 9]: 15 °C
Reserpine Reversal Δ^24 [2, 9]: 19 °C
Reserpine Reversal Δ^6 [2, 10]: 13 °C
Reserpine Reversal Δ^24 [2, 10]: 19 °C
activity on the Reserpine Reversal Test ([2]; low doses, (+)-isomer versus (-)-isomer): more active than the (-)-isomer on the Reserpine Reversal Test at low doses
Inhibition of Noradrenaline Uptake In Vitro % [3]: 40%
Mydriasis Integral Percent 120 Mins. [4]: 12600%

SMILES: CN(C)CC(O)C(c1ccccc1)c1ccccc1 (single isomer, unassigned; (-)) [Compound C, (-)-3-Dimethylamino-1,1-diphenylpropan-2-ol]
Reserpine Prevention Δ^6 [1, 8]: 11 °C
Reserpine Prevention Δ^24 [1, 8]: 17 °C
Reserpine Prevention Δ^6 [1, 9]: 13 °C
Reserpine Prevention Δ^24 [1, 9]: 19 °C
Reserpine Prevention Δ^6 [1, 10]: 12 °C
Reserpine Prevention Δ^24 [1, 10]: 19 °C
effects on the Reserpine Prevention tests [1]: roughly equal effects
Reserpine Reversal Δ^6 [2, 8]: 6 °C
Reserpine Reversal Δ^24 [2, 8]: 3 °C
Reserpine Reversal Δ^6 [2, 9]: 16 °C
Reserpine Reversal Δ^24 [2, 9]: 19 °C
Reserpine Reversal Δ^6 [2, 10]: 13 °C
Reserpine Reversal Δ^24 [2, 10]: 20 °C
Inhibition of Noradrenaline Uptake In Vitro % [3]: 64%
peripheral anticholinergic effects ([4]; (-)-isomer versus (+)-isomer): fewer peripheral anticholinergic effects than the (+)-isomer
Mydriasis Integral Percent 120 Mins. [4]: 6700%

SMILES: CN(C)CCC=C1c2ccccc2CCc2ccccc21 [Amitriptyline hydrochloride, reference compound]
Δ^6 ([1]; 30 mg/kg): 12 °C
Δ^24 ([1]; 30 mg/kg): 22 °C
Mydriasis-Dose to cause 200% effect ([5]; mouse, in vivo, ip): 6 mg/kg

SMILES: CCN(CC)CC(O)C(c1ccccc1)c1ccccc1 (stereo not drawn) [C2H5 C2H5 H H H HCl]
Δ^6 ([1]; 30 mg/kg): 11 °C
Δ^24 ([1]; 30 mg/kg): 11 °C

SMILES: CN(Cc1ccccc1)CC(O)C(c1ccccc1)c1ccc(F)cc1 (stereo not drawn) [CH2C6H5 CH3 H H F, 3-(N-Benzyl,N-methylamino)-1-p-fluorophenyl-1-phenylpropan-2-ol]
Δ^6 ([1]; 30 mg/kg): 9 °C
Δ^24 ([1]; 30 mg/kg): 11 °C

SMILES: CN(Cc1ccccc1)CC(O)C(c1ccccc1)c1ccccc1 (stereo not drawn) [CH2C6H5 CH3 H H H HCl, 3-(N-Benzyl-N-methylamino)-1,1-diphenyl-propan-2-ol]
Δ^6 ([1]; 30 mg/kg): 10 °C
Δ^24 ([1]; 30 mg/kg): 11 °C

SMILES: Cc1ccccc1C(c1ccccc1)C(O)CN(C)C (stereo not drawn) [CH3 CH3 CH3 H H HCl, 3-Dimethylamino-1-phenyl-1-o-tolyl-propan-2-ol]
Δ^6 ([1]; 30 mg/kg): 11 °C
Δ^24 ([1]; 30 mg/kg): 14 °C

SMILES: CN(C)CC(O)C(c1ccccc1)c1cccc(Cl)c1 (stereo not drawn) [CH3 CH3 H Cl H HCl, 3-Dimethylamino-1-m-chlorophenyl-1-phenyl-propan-2-ol]
Δ^6 ([1]; 20 mg/kg): 10 °C
Δ^24 ([1]; 20 mg/kg): 17 °C

Kb [6]: 10 µM
SMILES: CN(C)CC(O)C(c1ccccc1)c1ccc(Cl)cc1 (stereo not drawn) [CH3 CH3 H H Cl, 3-Dimethylamino-1-p-chlorophenyl-1-phenyl-propan-2-ol]
Δ^6 ([1]; 30 mg/kg): 13 °C
Δ^24 ([1]; 30 mg/kg): 22 °C
Δ^6 ([2]; 30 mg/kg): 9 °C
Δ^24 ([2]; 30 mg/kg): 11 °C
Mydriasis-Dose to cause 200% effect [5, 11]: 40 mg/kg

SMILES: CN(C)CC(O)C(c1ccccc1)c1ccc(F)cc1 (stereo not drawn) [CH3 CH3 H H F, 3-Dimethylamino-1-p-fluorophenyl-1-phenyl-propan-2-ol]
Δ^6 ([1]; 20 mg/kg): 11 °C
Δ^24 ([1]; 20 mg/kg): 15 °C
Δ^6 ([2]; 25 mg/kg): 17 °C
Δ^24 ([2]; 25 mg/kg): 23 °C
Inhibition of Monoamine Uptake NA (%) ([3]; 10^-5 molar): 80%
Inhibition of Monoamine Uptake NA (%) ([3]; 10^-6 molar (Table 4)): 59%
Inhibition of Monoamine Uptake 5HT (%) ([7]; 10^-5 molar): 85%
Inhibition of Monoamine Uptake 5HT (%) ([7]; 10^-6 molar): 60%

SMILES: CN(C)CC(O)C(c1ccccc1)c1ccccc1 (stereo not drawn) [CH3 CH3 H H H HBr, 3-Dimethylamino-1,1-diphenyl-propan-2-ol]
Δ^6 ([1]; 20 mg/kg): 13 °C
Δ^24 ([1]; 20 mg/kg): 19 °C
Δ^6 ([2]; 20 mg/kg): 14 °C
Δ^24 ([2]; 20 mg/kg): 22 °C
Mydriasis-Dose to cause 200% effect [5, 11]: 41 mg/kg
Kb [6]: 10 µM

SMILES: CNCC(O)C(c1ccccc1)c1ccc(C)cc1 (stereo not drawn) [CH3 H H H CH3 HCl, 3-N-methylamino-1-phenyl-1-p-tolyl-propan-2-ol]
Δ^6 ([1]; 100 mg/kg): 6 °C
Δ^24 ([1]; 100 mg/kg): 6 °C

SMILES: CNCC(O)C(c1ccccc1)c1ccccc1 (stereo not drawn) [CH3 H H H H HCl, 3-Methylamino-1,1-diphenyl-propan-2-ol]
Δ^6 ([1]; 20 mg/kg): > 10 °C
Δ^24 ([1]; 20 mg/kg): > 10 °C
Inhibition of Monoamine Uptake NA (%) ([3]; 10^-5 molar): 85%
Inhibition of Monoamine Uptake NA (%) ([3]; 10^-6 molar (Table 4)): 65%
Mydriasis-Dose to cause 200% effect [5, 11]: 114 mg/kg
Kb [6]: 10 µM

SMILES: CN(Cc1ccccc1)CC(C)(O)C(c1ccccc1)c1ccccc1 (stereo not drawn) [CH3 H N(CH3)CH2C6H5, 3-(N-Benzyl N-methylamino)-2-methyl-1,1-diphenyl-propan-2-ol]
Δ^6 ([1]; 100 mg/kg): 6 °C
Δ^24 ([1]; 100 mg/kg): 8 °C

SMILES: CNCC(C)(O)C(c1ccccc1)c1ccccc1 (stereo not drawn) [CH3 H NHCH3, 3-(N-methylamino)-2-methyl-1,1-diphenyl-propan-2-ol]
Δ^6 ([1]; 30 mg/kg): 7 °C
Δ^24 ([1]; 30 mg/kg): 13 °C

Kb [6]: 100 µM
SMILES: CNCC(O)C(c1ccccc1)c1ccc(F)cc1 (stereo not drawn) [H CH3 H H F, 3-Methylamino-1-p-fluorophenyl-1-phenyl-propan-2-ol]
Δ^6 ([1]; 30 mg/kg): 12 °C
Δ^24 ([1]; 30 mg/kg): 21 °C
Mydriasis-Dose to cause 200% effect [5, 11]: 92 mg/kg

SMILES: CC(=O)OC(CN(C)C)C(c1ccccc1)c1ccccc1 (stereo not drawn) [H COCH3 N(CH3)2, 2-Acetoxy-3-dimethylamino-1,1-diphenyl-propane]
Δ^6 ([1]; 20 mg/kg): > 10 °C
Δ^24 ([1]; 20 mg/kg): > 10 °C

SMILES: OC(CN1CCOCC1)C(c1ccccc1)c1ccccc1 (stereo not drawn) [H H morpholino]
Δ^6 ([1]; 100 mg/kg): 10 °C
Δ^24 ([1]; 100 mg/kg): 10 °C

SMILES: OC(CN1CCCCC1)C(c1ccccc1)c1ccccc1 (stereo not drawn) [H H piperidine, 3-N-Piperidino-1 1-diphenyl-propan-2-ol]
Δ^6 ([1]; 100 mg/kg): 9 °C
Δ^24 ([1]; 100 mg/kg): 10 °C

SMILES: CN(C)CCCN1c2ccccc2CCc2ccccc21 [Imipramine HCl, reference compound]
Δ^6 ([1]; 30 mg/kg): 10 °C
Δ^24 ([1]; 30 mg/kg): 17 °C
Δ^6 ([2]; 10 mg/kg): 18 °C
Δ^24 ([2]; 10 mg/kg): 18 °C
Inhibition of Monoamine Uptake NA (%) ([3]; 10^-5 molar): 85%
Inhibition of Monoamine Uptake NA (%) ([3]; 10^-6 molar (Table 4)): 56%
Inhibition of Monoamine Uptake 5HT (%) ([7]; 10^-5 molar): 90%
Inhibition of Monoamine Uptake 5HT (%) ([7]; 10^-6 molar): 55%
Mydriasis-Dose to cause 200% effect [5, 11]: 18 mg/kg
Kb [6]: 0.001 µM
